11 molecules from PubChem BioAssay AID743372 (Vanderbilt Specialized Chemistry Center, 2014) can be followed below.

The assay has as its target D(4) dopamine receptor (Homo sapiens) (UniProt P21917). Description: antagonism of human DRD4 receptor – cell-based, confirmation (AID 743372). The following applies: cells expressing human D4 receptor, antagonist mode.

`FC(F)(F)Oc1ccc(CN2CCOC(CCc3ccccc3)C2)cc1` (stereo unspecified): the IC50 was 160 nM.
For `Clc1ccc(CN2CCOC(CCc3ccccc3)C2)cc1` (stereo unspecified), the IC50 is 290 nM.
On to `FC(F)(F)Oc1ccc(CN2CCO[C@H](CCc3ccccc3)C2)cc1`, for which the IC50 was 230 nM.
On to `Fc1cccc(F)c1CN1CCOC(CCc2ccccc2)C1` (stereo unspecified), for which the 50% inhibitory concentration (IC50) is 3880 nM.
Consider `COc1ccc(CN2CCO[C@@H](CCc3ccccc3)C2)cc1`, for which the IC50 was 100 nM.
Consider `Cc1ccccc1CN1CCOC(CCc2ccccc2)C1` (stereo unspecified), for which the concentration for half-maximal inhibition (IC50) is 3680 nM.
With `COc1ccc(CN2CCOC(CCc3ccccc3)C2)cc1` (stereo unspecified) the figure was 170 nM; with `c1ccc(CCC2CN(Cc3ccccc3)CCO2)cc1` (stereo unspecified), 1480 nM; with `Fc1ccc(CN2CCOC(CCc3ccccc3)C2)cc1` (stereo unspecified), 1140 nM.
In the case of `FC(F)(F)Oc1cccc(CN2CCOC(CCc3ccccc3)C2)c1` (stereo unspecified) it was 390 nM; in that of `Clc1ccc(CN2CCO[C@H](CCc3ccccc3)C2)cc1`, 130 nM.
